US20250195513A1, “DEGRADATION OF IRAK4 BY CONJUGATION OF IRAK4 INHIBITORS WITH E3 LIGASE LIGAND AND METHODS OF USE” (BeiGene, Ltd., priority 2022, published 2025)
Like-named read-outs stand apart in the source and are kept apart here.

Biological target: T1, IRAK4 (Homo sapiens, UniProt Q9NWZ3)
T1 construct: endogenous in cells; host or cells: Karpas299
T1 sequence (Q9NWZ3 1-460): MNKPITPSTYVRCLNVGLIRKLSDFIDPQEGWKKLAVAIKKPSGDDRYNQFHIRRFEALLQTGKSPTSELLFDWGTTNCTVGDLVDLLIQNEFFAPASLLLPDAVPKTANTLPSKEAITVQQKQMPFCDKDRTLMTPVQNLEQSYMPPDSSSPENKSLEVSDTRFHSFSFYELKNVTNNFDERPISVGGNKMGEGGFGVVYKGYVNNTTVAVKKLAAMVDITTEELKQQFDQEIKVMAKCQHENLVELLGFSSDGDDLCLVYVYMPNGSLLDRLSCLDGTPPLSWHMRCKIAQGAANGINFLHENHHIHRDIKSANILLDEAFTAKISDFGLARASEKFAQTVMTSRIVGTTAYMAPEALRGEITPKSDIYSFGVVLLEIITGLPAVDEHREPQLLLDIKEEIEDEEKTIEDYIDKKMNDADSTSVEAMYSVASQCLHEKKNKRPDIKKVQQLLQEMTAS
Test: IRAK4 Degradation Assay (Karpas299, HTRF/TR-FRET)
Type: cell-based
Experimental: IRAK4 degradation was measured using a TR-FRET-based method (Degorce, François, et al. Current chemical genomics. 2009, 3: 22). Karpas299 maintained in RPMI 1640 medium (Thermo Scientific) supplemented with 20% fetal bovine serum (FBS, Thermo Scientific), 100 units/mL penicillin and 0.1 mg/mL streptomycin (Thermo Scientific) were seeded into 96-well plates at the density of 0.2 million cells per well and then treated with a series dilution of compounds. After 24 hours or 5 hours treatment, cells were pelleted via centrifugation and 40 μL lysis buffer (Cisbio) was added to each well after removal of the supernatant. Plates were then incubated at room temperature with shaking for 30 minutes. A total of 16 μL of cell lysates from each well of a 96-well plate was transferred to a 384-well white assay plate. IRAK4 level was quantitated using the HTRF kit as described by the manufacturer manual (Cisbio). FRET signals were measured using a PHERAstar FSX reader (BMG Labtech).
After treatment, add HTRF lysis buffer to each well; seal the plate and incubate 1 hour at room temperature on a plate shaker; Once the cells are lysed, 16 μL of cell lysate are transferred to a PE 384-well HTRF detection plate; 4 μL of pre-mixed HTRF antibodies are added to each well; Cover the plate with a plate sealer, spin 1000 rpm for 1 min, Incubate overnight at room temperature; Read on BMG PheraStar with HTRF protocol (337 nm-665 nm-620 nm).
The inhibition (degradation) percentage of the compound was calculated by the following equation: […]
The IC50 (DC50) value of a compound can be obtained by fitting the following equation
Wherein, X and Y are known values, and IC50, Hillslope, Top and Bottom are the parameters obtained by fitting with software. Y is the inhibition percentage (calculated from the equation), X is the concentration of the compound; IC50 is the concentration of the compound when the […] is reached. The smaller the IC50 value is, the stronger the inhibitory ability of the compound is. Vice versa, the higher the IC50 value is, the weaker the ability the inhibitory ability of the compound is; Hillslope represents the slope of the fitted curve, generally around 1 *; Bottom represents the minimum value of the curve obtained by data fitting, which is generally 0%±20%; Top represents the maximum value of the curve obtained by data fitting, which is generally 100%±20%. The experimental data were fitted by calculating and analyzing with Dotmatics data analysis software.

[1] = Karpas-299 cells, 24 h treatment, maximum percentage of degradation, read-out: IRAK4 in Karpas-299 (24 h) Dmax (%)
[2] = Karpas-299 cells, 24 h treatment, read-out: IRAK4 in Karpas-299 (24 h) DC50
[3] = Karpas-299 cells, 5 h treatment, maximum percentage of degradation, read-out: IRAK4 in Karpas-299 (5 h) Dmax (%)
[4] = Karpas-299 cells, 5 h treatment, read-out: IRAK4 in Karpas-299 (5 h) DC50

Row | Structure (SMILES) | Dmax [1] [%] | DC50 [2] [nM] | Dmax [3] [%] | DC50 [4] [nM] | DC50 (Degradation (Karpas-299), comparison table, Linker Type A, read-out: Compound (Linker Type A) DC50) [nM] | Dmax (Degradation (Karpas-299), comparison table, Linker Type A, read-out: Compound (Linker Type A) Dmax (%)) [%]
1 | COc1cc2nn([C@H]3CC[C@H](CN4CCN(C(=O)C5CN(c6ccc(N7CCC(=O)NC7=O)cc6)C5)CC4)CC3)cc2cc1NC(=O)c1cccc(C(F)(F)F)n1 [Example 5, N-(2-((1r,4r)-4-((4-(1-(4-(2,4-dioxotetrahydropyrimidin-1(2H)-yl)phenyl)azetidine-3-carbonyl)piperazin-1-yl)methyl)cyclohexyl)-6-methoxy-2H-indazol-5-yl)-6-(trifluoromethyl)picolinamide] | 92 | 14 |  |  | 14 | 92
2 | NC(=O)c1nn([C@H]2CC[C@H](N3CCN(C4CC(c5ccc(N[C@@H]6CCC(=O)NC6=O)cc5)C4)CC3)CC2)cc1NC(=O)c1coc(-c2ccnc(NCC(F)(F)F)c2)n1 (stereo partly drawn) [Example 9, N-(3-carbamoyl-1-((1r,4r)-4-(4-(3-(4-(((R)-2,6-dioxopiperidin-3-yl)amino)phenyl)cyclobutyl)piperazin-1-yl)cyclohexyl)-1H-pyrazol-4-yl)-2-(2-((2,2,2-trifluoroethyl)amino)pyridin-4-yl)oxazole-4-carboxamide] | 95 | 2.5 |  |  |  | 
3 | CC(C)(O)c1cc2nn([C@H]3CC[C@H](N4CCN(C(=O)[C@@H]5CCN(c6cc(F)c([C@H]7CCC(=O)NC7=O)c(F)c6)C5)CC4)CC3)cc2cc1NC(=O)c1cccc(C(F)(F)F)n1 [Example 39, N-(2-((1R,4r)-4-(4-((R)-1-(4-((R)-2,6-dioxopiperidin-3-yl)-3,5-difluorophenyl)pyrrolidine-3-carbonyl)piperazin-1-yl)cyclohexyl)-6-(2-hydroxypropan-2-yl)-2H-indazol-5-yl)-6-(trifluoromethyl)picolinamide] | 99 | 0.8 | 96 | 4.6 |  | 
4 | NC(=O)c1nn([C@H]2CC[C@H](N3CCN(C4CC(c5ccc(N[C@H]6CCC(=O)NC6=O)cc5)C4)CC3)CC2)cc1NC(=O)c1coc(-c2ccnc(NCC(F)(F)F)c2)n1 (stereo partly drawn) [Example 10, N-(3-carbamoyl-1-((1r,4r)-4-(4-(3-(4-(((S)-2,6-dioxopiperidin-3-yl)amino)phenyl)cyclobutyl)piperazin-1-yl)cyclohexyl)-1H-pyrazol-4-yl)-2-(2-((2,2,2-trifluoroethyl)amino)pyridin-4-yl)oxazole-4-carboxamide] | 92 | 5.4 |  |  |  | 
5 | O=C1CC[C@H](c2c(F)cc(N3CC(C(=O)N4CCN([C@H]5CC[C@H](n6cc(NC(=O)c7cnn(-c8ccnc(NCC(F)(F)F)c8)n7)c(C(F)F)n6)CC5)CC4)C3)cc2F)C(=O)N1 [Example 51, N-(3-(difluoromethyl)-1-((1r,4r)-4-(4-(1-(4-((R)-2,6-dioxopiperidin-3-yl)-3,5-difluorophenyl)azetidine-3-carbonyl)piperazin-1-yl)cyclohexyl)-1H-pyrazol-4-yl)-2-(2-((2,2,2-trifluoroethyl)amino)pyridin-4-yl)-2H-1,2,3-triazole-4-carboxamide] | 96 | 1.2 | 93 | 4.8 |  | 
6 | O=C1CC[C@H](c2c(F)cc(N3CC(C(=O)N4CCN(c5ccc(-n6cc(NC(=O)c7coc(-c8ccnc(NCC(F)(F)F)c8)n7)c(C(F)F)n6)cn5)CC4)C3)cc2F)C(=O)N1 [Example 29] | 96 | 6.9 | 76 | 162 |  | 
7 | O=C1CC[C@H](c2c(F)cc(N3CC(CN4CCN([C@H]5CC[C@H](n6cc(NC(=O)c7coc(-c8ccnc(NCC9CC9)c8)n7)c(C(F)F)n6)CC5)CC4)C3)cc2F)C(=O)N1 [Example 27, 2-(2-((cyclopropylmethyl)amino)pyridin-4-yl)-N-(3-(difluoromethyl)-1-((1r,4r)-4-(4-((1-(4-((R)-2,6-dioxopiperidin-3-yl)-3,5-difluorophenyl)azetidin-3-yl)methyl)piperazin-1-yl)cyclohexyl)-1H-pyrazol-4-yl)oxazole-4-carboxamide] | 99 | 2.8 |  |  |  | 
8 | Cc1cc(-c2nc(C(=O)Nc3cn(-c4ccc(N5CCN(C(=O)C6CN(c7ccc(N8CCC(=O)NC8=O)cc7)C6)CC5)nc4)nc3C(N)=O)co2)ccn1 [Example 31, N-(3-carbamoyl-1-(6-(4-(1-(4-(2,4-dioxotetrahydropyrimidin-1(2H)-yl)phenyl)azetidine-3-carbonyl)piperazin-1-yl)pyridin-3-yl)-1H-pyrazol-4-yl)-2-(2-methylpyridin-4-yl)oxazole-4-carboxamide] | 96 | 5.8 | 89 | 8.2 |  | 
9 | CC(C)(O)c1cc2nn([C@H]3CC[C@H](N4CCN(C(=O)C5CCN(c6cc(F)c([C@H]7CCC(=O)NC7=O)c(F)c6)CC5)CC4)CC3)cc2cc1NC(=O)c1cccc(C(F)(F)F)n1 [Example 47, N-(2-((1r,4r)-4-(4-(1-(4-((R)-2,6-dioxopiperidin-3-yl)-3,5-difluorophenyl)piperidine-4-carbonyl)piperazin-1-yl)cyclohexyl)-6-(2-hydroxypropan-2-yl)-2H-indazol-5-yl)-6-(trifluoromethyl)picolinamide] | 98 | 0.6 |  |  |  | 

Continued, values first:

Row | Dmax [1] [%] | DC50 [2] [nM] | Dmax [3] [%] | DC50 [4] [nM] | DC50 (Degradation (Karpas-299), comparison table, Linker Type A, read-out: Compound (Linker Type A) DC50) [nM] | Dmax (Degradation (Karpas-299), comparison table, Linker Type A, read-out: Compound (Linker Type A) Dmax (%)) [%] | Structure (SMILES)
10 | 96 | 5.7 |  |  |  |  | CC(C)(O)c1cc2nn(C3CCN(C4CCN(C(=O)[C@@H]5CCN(c6ccc(N7CCC(=O)NC7=O)cc6)C5)CC4)CC3)cc2cc1NC(=O)c1cccc(C(F)(F)F)n1 [Example 162, (R)—N-(2-(1′-(1-(4-(2,4-dioxotetrahydropyrimidin-1(2H)-yl)phenyl)pyrrolidine-3-carbonyl)-[1,4′-bipiperidin]-4-yl)-6-(2-hydroxypropan-2-yl)-2H-indazol-5-yl)-6-(trifluoromethyl)picolinamide]
11 | 100 | 7.2 | 90 | 41 |  |  | CC(C)(O)c1cc2nc(C3CCN(C4CCN(C(=O)[C@H]5CCN(c6ccc(N7CCC(=O)NC7=O)cc6)C5)CC4)CC3)cn2cc1NC(=O)c1cccc(C(F)(F)F)n1 [Example 128, (S)—N-(2-(1′-(1-(4-(2,4-dioxotetrahydropyrimidin-1(2H)-yl)phenyl)pyrrolidine-3-carbonyl)-[1,4′-bipiperidin]-4-yl)-7-(2-hydroxypropan-2-yl)imidazo[1,2-a]pyridin-6-yl)-6-(trifluoromethyl)picolinamide]
12 | 97 | 1.2 |  |  |  |  | O=C1CC[C@H](c2c(F)cc(N3CC[C@@H](C(=O)N4CCN([C@H]5CC[C@H](n6cc(NC(=O)c7coc(-c8ccnc(NCC9CC9)c8)n7)c(C(F)F)n6)CC5)C(=O)C4)C3)cc2F)C(=O)N1 [Example 101, 2-(2-((cyclopropylmethyl)amino)pyridin-4-yl)-N-(3-(difluoromethyl)-1-((1R,4r)-4-(4-((R)-1-(4-((R)-2,6-dioxopiperidin-3-yl)-3,5-difluorophenyl)pyrrolidine-3-carbonyl)-2-oxopiperazin-1-yl)cyclohexyl)-1H-pyrazol-4-yl)oxazole-4-carboxamide]
13 | 96 | 2 |  |  |  |  | O=C1CC[C@H](c2c(F)cc(N3CC[C@@H](C(=O)N4CCN([C@H]5CC[C@H](n6cc(NC(=O)c7cnn(-c8ccnc(NCC(F)(F)F)c8)n7)c(C(F)F)n6)CC5)CC4)C3)cc2F)C(=O)N1 [Example 52, N-(3-(difluoromethyl)-1-((1R,4r)-4-(4-((R)-1-(4-((R)-2,6-dioxopiperidin-3-yl)-3,5-difluorophenyl)pyrrolidine-3-carbonyl)piperazin-1-yl)cyclohexyl)-1H-pyrazol-4-yl)-2-(2-((2,2,2-trifluoroethyl)amino)pyridin-4-yl)-2H-1,2,3-triazole-4-carboxamide]
